These are literature values, as cited in patent publication US10709751B2, “Chardonnay grape seed extract” (SHAKLEE CORPORATION, priority 2014, dated 2020).

For series [1] the following is noted: laboratory studies.
The next series deals with neurons. Particulars: laboratory studies.

`Oc1cc(O)c2c(c1)O[C@H](c1ccc(O)c(O)c1)[C@H](O)C2` [epicatechin]: the “crossing of the blood-brain barrier” value in series [1] was “cross the blood-brain barrier”. In the case of chlorogenic acids, the “growth and development of neurons” value in the series on neurons is “stimulate growth and development of neurons”. As to `COc1cc(/C=C/c2ccc(O)cc2)cc(OC)c1` [pterostilbene], the “crossing of the blood-brain barrier” value in series [1] is reported as “cross the blood-brain barrier”.
